One assay concerns hippocampus area CA1. As to the kind of experiment: Extracellular recordings (pEPSPs, population spikes) in acute rat hippocampal brain slice preparation. It is filed as cell-based. As to conditions: for pEPSPs, fraction of control (FIG. 4D) / pSpikes, fraction of control (FIG. 4C): 10 nM SEQ ID NO:11, 20 nM SEQ ID NO:9 and SEQ ID NO:15, 250 μM NEM, adult rat hippocampus; for excitatory synaptic input into primary cells in the rat CA1: acute rat hippocampal brain slice; for reversal of effects upon removal of peptide from the superfusate: washout.

For the next assay, the system named is embryonic mouse tissues. Briefly: Binding of I125-labeled peptides to embryonic mouse tissues (autoradiography, Tuj1 staining). The source says:
(§1) The binding of I^125-labeled peptides to embryonic and adult rodent tissues was studied in vitro. Chemically synthesized peptides containing an extra N-terminal tyrosine (Sigma-Genosys, Cambridge, UK) were labeled with lactoperoxidase (Trupp et al. (1995) J. Cell Biol. 130(1): 137-148). Specific activities obtained for each were 0.5-2.5×10^14 cpm/mmol, except for SEQ ID NO:9 10^13 cpm/mmol. From both E17 Wistar rat and E15 mouse embryos, kidneys, gut, pancreas and spinal cord were dissected. In addition, testes, ovaries, brain and adrenal glands of the embryonic mice were taken. The binding was performed and paraffin sections of embryonic tissues were processed as described (Partanen et al. (1987) Dev Biol 120(1): 186-197). Freshly cut adult rat brain slices of 1 mm were cut and incubated in 0.5-1 nmol/ml of ^125I-peptides, washed and processed for paraffin sections. Kodak (Rochester, N.Y.) NTB-2 emulsion was used for autoradiography and the samples were exposed from 3 to 12 weeks at +4° C. The sections were developed with Kodak D19 and stained with hematoxylin.
For immunohistochemical staining of tissues, paraffin sections were mounted with Immumount (Shandon, Pittsburgh, Pa.). Sections were stained with an anti-class III β-tubulin antibody (Tuj1; Covance Inc., Princeton, N.J.), which recognizes selectively neuronal cells. Staining was performed with Vectastain kit (Vector Laboratories, Burlingame, Calif.) according to manufacturer's instructions, except that the primary antibody (1:300) was incubated in +4° C. o/n.

In another assay the test system is adult rat brain. As to the kind of experiment: Binding of I125-labeled peptides to adult rat brain slices (autoradiography).
Text: as §1
For immunohistochemical staining of tissues, paraffin sections were mounted with Immumount (Shandon, Pittsburgh, Pa.). Sections were stained with an anti-class III β-tubulin antibody (Tuj1; Covance Inc., Princeton, N.J.), which recognizes selectively neuronal cells. […]

The next assay relates to synaptic transmission. As to conditions: Qian et al (1997); cited from earlier work.
The test system of the next assay is ureteric branching. As to conditions: Sainio et al. (1997); cited from earlier work.
A further assay relates to primary neurons. As to conditions: U. Arumäe, personal communication; cited from earlier work.
Setting [1] is: 10 nM peptide in the presence of 250 μM NEM.
[2] abbreviates: superfusion with 10-50 nM, 0.05 Hz stimulation of Schaffer collateral fibres, CA1, slices from P28-P35 rats.

Entries after “also recorded” stand apart in the source; their conditions may differ. No end group written: not given here.

Turning to `CCN1C(=O)C=CC1=O` [NEM, N-ethylmaleimide, reference compound], in the assay with hippocampus area CA1, the “pEPSPs, fraction of control (FIG. 4D)” value is given as “increases” and the “pSpikes, fraction of control (FIG. 4C)” value is reported as “increases”. Also, the stimulus-evoked responses entry with hippocampus area CA1 (NEM by bath perfusion, every slice recorded) was “increased”.
Regarding “FPLPA(a) (FPLPA-NH2; not fully specified) [SEQ ID NO:9, GDNF precursor-derived neuropeptide; human, mouse, rat]”, the specific binding entry in the assay with embryonic mouse tissues (I125-labeled peptide with extra N-terminal tyrosine) is listed as “specific binding”. The “tissue distribution of binding” value in the assay with embryonic mouse tissues (I125-labeled peptide, E15 mouse embryo tissues) was “restricted to embryonic mouse tissues outside the CNS; also recorded: bound to embryonic (E15) mouse tissues”. In addition, in the assay with embryonic mouse tissues (embryonic mouse testis (FIG. 3 I, J)), the binding in testis result is given as “binding to the interstitium”. In addition, the “distribution of binding versus neuronal β-tubulin (Tuj1) staining” value with embryonic mouse tissues (gut and metanephric kidney capsule (FIG. 3 E-H)) was “closely overlapped”. Also, the “presynaptic fiber volley (in words)” value in the assay on hippocampus area CA1 (CA1, rat hippocampal slices) is on record as “significant decrease”. Moreover, the “change of pSPs” value with hippocampus area CA1 (CA1, rat hippocampal slices, concentration not given) is recorded as −24%. In addition, in the assay on hippocampus area CA1, the “excitatory synaptic input into primary cells in the rat CA1” value was “modulate” and the “reversal of effects upon removal of peptide from the superfusate” value was “fully or almost fully reversed”.
Take “LLEAPAEDHSL(a) (LLEAPAEDHSL-NH2; not fully specified) [SEQ ID NO:11, GDNF precursor-derived neuropeptide; mouse, rat]”: in the assay on adult rat brain (I125-labeled peptide with extra N-terminal tyrosine, 0.5-1 nmol/ml), the specific binding entry is recorded as “specific binding”. Besides, the “binding to adult rat brain slices (FIG. 3 A-D)” value with adult rat brain (I125-labeled peptide, sections containing the hippocampal area) is “extensive binding exclusively in adult rat brain; also recorded: intensive binding”. Further, in the assay on hippocampus area CA1, the “pEPSPs, fraction of control (FIG. 4D)” value is reported as “substantially increases”; the “pSpikes, fraction of control (FIG. 4C)” value is “substantially increases”; the “excitatory synaptic input into primary cells in the rat CA1” value is given as “modulate”; the “reversal of effects upon removal of peptide from the superfusate” value was “fully or almost fully reversed”. Besides, in the assay with hippocampus area CA1 (setting [1]), the “pEPSPs when peptide is added to NEM” value is listed as “no further increase” and the “pSpikes when peptide is added to NEM” value was “no further increase”. Further, in the assay with hippocampus area CA1 (10 nM peptide, absence or presence of 250 μM NEM), the “increase in presynaptic volley with or without NEM (FIG. 4 A, B)” value is reported as “seen only in the absence of NEM”. For the same molecule, the “average increase in the presynaptic fiber volley” value with hippocampus area CA1 (CA1, rat hippocampal slices) worked out at 34%. For the same molecule, in the assay with hippocampus area CA1 (in the presence of NEM (FIG. 4 B, C, D)), the “effect on excitability in the presence of a Gi/o-blocking agent” value was “no effect”. In addition, the “effective concentrations on pEPSP and pSpike (FIG. 6)” value with hippocampus area CA1 (increasing concentrations) is listed as “nanomolar”. In the assay with hippocampus area CA1 (setting [2]), the “increase of pEPSPs” value is reported as 30-40% and the “increase of population spikes (pSPs)” value is on record as 30-40%.
Consider “PYY3-36: peptide YY fragment, literature comparison”, for which the “levels necessary for inhibition of synaptic transmission” value in the assay with synaptic transmission was 1 µM.
On to neuropeptide Y [NPY], for which the “levels necessary for inhibition of synaptic transmission” value in the assay with synaptic transmission was 1 µM.

B1: glial cell line-derived neurotrophic factor (protein, UniProt P39905 78-211, looked up)
Glial cell line-derived …: SPDKQMAVLPRRERNRQAAAANPENSRGKGRRGQRGKNRGCVLTAIHLNVTDLGLGYETKEELIFRYCSGSCDAAETTYDKILKNLSRNRRLVSDKVGQACCRPIAFDDDLSFLDDNLVYHILRKHSAKRCGCI
notes: neurotrophic factor, literature comparison
With B1, the “concentrations required for promotion of ureteric branching” value in the assay with ureteric branching is recorded as “nanomolar”. Further, the “concentrations required for maintenance of primary neurons” value with primary neurons was “nanomolar”.

These data come from patent publication US20060258576A1, “Gdnf-related neuropeptides” (Licentia, Ltd, priority 2003, published 2006).
